Like-named read-outs stand apart in the source and are kept apart here. Positions of bridges follow the written chain, without caps; N, C: chain ends. Residues, ends and D or L forms follow the SMILES beside them.
Key:
[1] = biological target: human Kv1.3 potassium channel (human) (UniProt P22001)
[2] = biological target: hKv1.1 channel (human) (UniProt Q09470)
[3] = biological target: hKv1.2 channel (human) (UniProt P16389)
[4] = biological target: hKv1.6 channel (human) (UniProt P17658)
[5] = system: hKv1.1 channel; test: Whole-cell patch clamp, hKv1.1 channel currents; format: cell-based, human; details: 1 μM peptide, mean ± SE, n ≥ 3, SEM
Excerpt: (§1) The pRc/CMV-hKv1.3 was kindly provided by Professor Stephan Grissmer (University of Ulm, Ulm, Germany) and Professor Olaf Pongs (Zentrum für Molekulare Neurobiologie der Universität Hamburg, Hamburg, Germany). The cDNAs encoding hKv1.1 and hKv1.2 (from Professor Stephan Grissmer, University of Ulm, Ulm, Germany) were subcloned into the vector pIRES2-EGFP (TaKaRa Clontech, Mountain View, CA, USA). The cDNAs encoding hKv1.6 were subcloned into the vector pcDNA 3.1(+) (TaKaRa Clontech, Mountain View, CA, USA). A QuikChange Site-Directed Mutagenesis Kit (Stratagene, La Jolla, CA, USA) was used to produce the mutants based on the wild-type hKv1.3 channel plasmids. All plasmids and their mutants were verified by DNA sequencing before the expression. The three channel chimeras were, respectively, named by hKv1.3-M1 (425DPTSGFS432 → 425ERESQFP432), hKv1.3-M2 (452HPV456 → 452VPT456) and hKv1.3-M3 (425DPTSGFS432 → 425ERESQFP432, 452HPV456 → 452VPT456).
(§2) In a 5% CO2 incubator at 37 °C, HEK293T cells were cultured in DMEM medium (Gibco, Grand Island, NY, USA) supplemented with 10% fetal bovine serum and 1% penicillin/streptomycin. Potassium channel plasmids and pEGFP-N1 were co-transfected into the HEK293 cells using the ExFect Transfection Reagent (Vazyme, Nanjin, China). After one day of transfection, the potassium currents were recorded, and the positive cells were selected based on the presence of GFP fluorescence.
(§3) Whole-cell current measurement and data acquisition were performed using an EPC-10 patch-clamp amplifier controlled by Pulse (HEKA Elektronik, Lambrecht, Germany). The potassium currents were recorded according to the recording protocol for the Kv1 channel, as described in previously published references. Peptides were dissolved in an external solution containing 0.01% BSA for electrophysiological experiments. […]

[6] = system: hKv1.2 channel; test: Whole-cell patch clamp, hKv1.2 channel currents; format: cell-based, human; details: 1 μM peptide, mean ± SE, n ≥ 3, SEM
Excerpt: as §1, §2, §3

[7] = system: hKv1.6 channel; test: Whole-cell patch clamp, hKv1.6 channel currents; format: cell-based, human; details: 1 μM peptide, mean ± SE, n ≥ 3, SEM
Excerpt: as §1, §2, §3

[8] = system: hKv1.3-M1 channel (turret domain of hKv1.3 substituted by hKv1.2 region); test: Whole-cell patch clamp, chimeric hKv1.3-M1 channel currents; format: cell-based, human; details: mean ± SE, n ≥ 3, SEM
Experimental: In order to further investigate the effect of basic residue number on BmK-NSPK pharmacology, the activities of BmK-NSPK analogs were also tested on the Kv1.3 channel chimeras in this work. […] Based on the weak inhibition potencies of BmK-NSPK-7K and BmK-NSPK-8K towards hKv1.2 channel (Figure 5C,D), the work first constructed the chimeric hKv1.3-M1, in which the turret domain of hKv1.3 channel was substituted by the equivalent region of hKv1.2 channel (Figure 6A). Pharmacological experiments with 100 nM and 1 μM MeuKTX were able to inhibit 45.7 ± 7.9% and 82.8 ± 6.1% of hKv1.3-M1 channel currents, respectively (Figure 6B).
as §1, §2
(§4) Whole-cell current measurement and data acquisition were performed using an EPC-10 patch-clamp amplifier controlled by Pulse (HEKA Elektronik, Lambrecht, Germany). The potassium currents were recorded according to the recording protocol for the Kv1 channel, as described in previously published references. Peptides were dissolved in an external solution containing 0.01% BSA for electrophysiological experiments. The patch pipette solution contained 140 mM KF (Sigma, St. Louis, MC, USA), 2 mM MgCl2 (Sinopharm Chemical Reagent Co., Ltd., Shanghai, China), 1 mM EGTA (Sigma) and 10 mM HEPES (neoFroxx, Einhausen, Hessen, Germany) (pH adjusted to 7.4 with KOH (Sinopharm Chemical Reagent Co., Ltd., Shanghai, China)), and the bath solution contained 4.5 mM KCl, 160 Mm NaCl (Sinopharm Chemical Reagent Co., Ltd., Shanghai, China), 5 mM HEPES, 2 mM CaCl2 (Sinopharm Chemical Reagent Co., Ltd., Shanghai, China) and 1 mM MgCl2 (pH adjusted to 7.4 with NaOH (Sinopharm Chemical Reagent Co., Ltd., Shanghai, China)).
(§5) Graphing and data analysis were conducted using GraphPad Prism software (Version 8.0, San Diego, CA, USA), ClampFit software (version 10.2, Molecular Devices, Sunnyvale, CA, USA), and SigmaPlot software (version 12.0, IBM SPSS, Chicago, IL, USA). The dose–response relationship between the channel current and peptide inhibition was modeled by the modified Hill equation: Ipeptide/Icontrol = 1/{1 + [peptide]/IC50}, where Ipeptide represents the potassium current under peptide inhibition, Icontrol represents the peak current, IC50 is the half-maximal inhibition concentration and [peptide] represents the peptide concentration. The IC50 was obtained by fitting the Hill equation. Results are presented as mean ± SE, with each sample tested on at least three cells (n ≥ 3).

[9] = system: hKv1.3-M2 channel (filter region of hKv1.3 substituted by hKv1.2 region); test: Whole-cell patch clamp, chimeric hKv1.3-M2 channel currents; format: cell-based, human; details: mean ± SE, n ≥ 3, SEM
Experimental: Apart from the chimeric hKv1.3-M1, this work further constructed the chimeric hKv1.3-M2 channel, in which the filter region of hKv1.3 channel was substituted by the equivalent region of hKv1.2 channel (Figure 6A). Pharmacological experiments 100 nM and 1 μM MeuKTX were able to inhibit 78.3 ± 4.9% and 95.9 ± 1.3% of hKv1.3-M2 channel currents, respectively, which indicated the minor effect of channel filter region on MeuKTX binding (Figure 6B). However, more significant effects were also observed for BmK-NSPK analogs with different numbers of basic residues.
as §1, §2, §4, §5

[10] = system: hKv1.3-M3 channel (turret, pore helix and filter region of hKv1.3 replaced by hKv1.2 regions); test: Whole-cell patch clamp, chimeric hKv1.3-M3 channel currents; format: cell-based, human; details: mean ± SE, n ≥ 3, SEM
Excerpt: as §1, §2, §4, §5

[11] = biological target: human Kv1.3 potassium channel (human) (UniProt P22001); remark: listed apart in the source

human Kv1.3 potassium channel (human), sequence (P22001 whole entry): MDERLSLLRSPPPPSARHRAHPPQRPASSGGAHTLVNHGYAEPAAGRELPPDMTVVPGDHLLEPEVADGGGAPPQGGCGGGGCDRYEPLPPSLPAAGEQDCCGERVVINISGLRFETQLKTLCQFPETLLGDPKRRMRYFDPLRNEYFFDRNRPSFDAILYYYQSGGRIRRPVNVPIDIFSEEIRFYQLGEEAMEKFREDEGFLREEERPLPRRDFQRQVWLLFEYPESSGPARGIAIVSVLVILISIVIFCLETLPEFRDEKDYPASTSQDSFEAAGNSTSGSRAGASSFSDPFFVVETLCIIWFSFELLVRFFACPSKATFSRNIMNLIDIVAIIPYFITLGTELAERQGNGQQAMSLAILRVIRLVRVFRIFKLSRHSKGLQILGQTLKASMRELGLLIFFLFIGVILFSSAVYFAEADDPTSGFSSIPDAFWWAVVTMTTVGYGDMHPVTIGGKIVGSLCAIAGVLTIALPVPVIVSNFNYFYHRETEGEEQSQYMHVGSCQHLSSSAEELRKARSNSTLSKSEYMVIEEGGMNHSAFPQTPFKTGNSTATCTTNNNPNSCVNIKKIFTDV
KTX-3 peptide, sequence (P59290 whole entry): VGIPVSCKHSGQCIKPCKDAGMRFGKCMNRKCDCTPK
hKv1.1 channel (human), sequence (Q09470 whole entry): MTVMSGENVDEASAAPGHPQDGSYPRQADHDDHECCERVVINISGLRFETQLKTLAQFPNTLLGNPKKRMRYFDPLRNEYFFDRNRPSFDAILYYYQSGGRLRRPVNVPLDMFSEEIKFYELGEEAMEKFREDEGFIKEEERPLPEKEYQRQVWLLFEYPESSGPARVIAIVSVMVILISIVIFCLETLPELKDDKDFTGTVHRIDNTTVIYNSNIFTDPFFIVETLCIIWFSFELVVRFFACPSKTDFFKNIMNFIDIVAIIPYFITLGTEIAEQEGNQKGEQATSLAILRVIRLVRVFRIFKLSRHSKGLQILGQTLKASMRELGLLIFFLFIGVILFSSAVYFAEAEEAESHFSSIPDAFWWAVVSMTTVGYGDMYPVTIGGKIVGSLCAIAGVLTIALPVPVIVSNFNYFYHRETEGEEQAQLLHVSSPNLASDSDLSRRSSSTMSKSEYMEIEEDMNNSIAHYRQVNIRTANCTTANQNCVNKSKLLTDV
hKv1.2 channel (human), sequence (P16389 whole entry): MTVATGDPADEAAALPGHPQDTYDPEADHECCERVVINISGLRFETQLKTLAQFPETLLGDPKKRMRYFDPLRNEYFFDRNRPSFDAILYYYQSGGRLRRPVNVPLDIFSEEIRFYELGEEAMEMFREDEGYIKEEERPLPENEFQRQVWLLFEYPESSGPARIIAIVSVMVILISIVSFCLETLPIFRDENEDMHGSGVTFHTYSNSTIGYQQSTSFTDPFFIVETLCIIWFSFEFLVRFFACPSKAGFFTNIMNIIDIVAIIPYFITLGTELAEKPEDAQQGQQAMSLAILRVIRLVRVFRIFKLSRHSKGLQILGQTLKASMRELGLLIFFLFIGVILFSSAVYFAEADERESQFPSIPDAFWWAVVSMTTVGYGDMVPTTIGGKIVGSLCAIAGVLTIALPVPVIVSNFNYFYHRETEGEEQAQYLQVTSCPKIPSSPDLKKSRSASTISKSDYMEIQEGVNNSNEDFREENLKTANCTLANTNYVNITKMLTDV
hKv1.6 channel (human), sequence (P17658 whole entry): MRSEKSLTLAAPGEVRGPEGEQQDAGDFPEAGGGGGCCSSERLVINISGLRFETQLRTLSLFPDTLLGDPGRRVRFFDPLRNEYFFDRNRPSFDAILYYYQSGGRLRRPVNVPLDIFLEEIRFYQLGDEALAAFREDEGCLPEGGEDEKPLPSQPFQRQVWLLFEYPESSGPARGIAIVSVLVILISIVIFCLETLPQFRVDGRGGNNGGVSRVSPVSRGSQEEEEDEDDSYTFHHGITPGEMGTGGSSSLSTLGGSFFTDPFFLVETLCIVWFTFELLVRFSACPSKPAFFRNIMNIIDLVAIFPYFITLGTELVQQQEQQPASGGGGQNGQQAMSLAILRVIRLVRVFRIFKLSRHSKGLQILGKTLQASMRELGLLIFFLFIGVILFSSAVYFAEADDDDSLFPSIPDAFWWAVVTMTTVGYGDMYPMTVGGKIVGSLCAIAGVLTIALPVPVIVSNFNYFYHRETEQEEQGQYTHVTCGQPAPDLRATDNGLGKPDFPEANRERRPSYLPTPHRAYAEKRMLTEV
KTX-2 peptide, sequence (P45696 23-59): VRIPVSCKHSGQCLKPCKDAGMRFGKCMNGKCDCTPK

Molecule: BmK-NSPK peptide
- inhibition of hKv1.3 channel currents by 1 μM peptide (whole-cell patch clamp, HEK293T) [1]: 2.3%
- inhibition of hKv1.1 channel currents by 1 μM peptide (whole-cell patch clamp, HEK293T) [2]: 1.2%
- inhibition of hKv1.2 channel currents by 1 μM peptide (whole-cell patch clamp, HEK293T) [3]: 1.7%
- inhibition of hKv1.6 channel currents by 1 μM peptide (whole-cell patch clamp, HEK293T) [4]: 5.4%

Molecule: KTX-3 peptide (from UniProt P59290 1-37)
- IC50 of inhibition of hKv1.3 channel currents (whole-cell patch clamp, HEK293T) [1]: 0.46 nM
- inhibition of hKv1.3 channel currents by 1 μM peptide (whole-cell patch clamp, HEK293T) [1]: 91.6%

Molecule: CC[C@H](C)[C@H](NC(=O)CNC(=O)[C@@H](N)C(C)C)C(=O)N[C@@H](CC(N)=O)C(=O)N[C@H](C(=O)N[C@@H](CCCCN)C(=O)N[C@H]1CSSC[C@@H]2NC(=O)[C@H](CCCCN)NC(=O)CNC(=O)[C@H](Cc3ccccc3)NC(=O)[C@H](CCCNC(=N)N)NC(=O)[C@H](CCSC)NC(=O)CNC(=O)[C@H](C)NC(=O)[C@H](CC(=O)O)NC(=O)[C@H](CCCCN)NC(=O)[C@@H]3CSSC[C@@H](C(=O)N[C@H](C(=O)N4CCC[C@H]4C(=O)N[C@@H](CCCCN)C(=O)NCC(=O)O)[C@@H](C)O)NC(=O)[C@H](CC(=O)O)NC(=O)[C@H](CSSC[C@H](NC(=O)[C@H](CCC(N)=O)NC(=O)CNC(=O)[C@H](CO)NC(=O)[C@H](Cc4c[nH]cn4)NC(=O)[C@H](CCCCN)NC1=O)C(=O)N[C@@H](CC(C)C)C(=O)N[C@@H](CCCCN)C(=O)N1CCC[C@H]1C(=O)N3)NC(=O)[C@H](CCCCN)NC(=O)CNC(=O)[C@H](CC(N)=O)NC(=O)[C@H](CCSC)NC2=O)C(C)C [BmK-NSPK-7K] (H-VGINVKCKHSGQCLKPCKDAGMRFGKCMNGKCDCTPKG-OH; disulfide 7-27, 13-32, 17-34 (inferred); N-terminus and C-terminus assumed)
- inhibition of hKv1.1 channel currents [5]: 84.1 ± 7.0%
- inhibition of hKv1.2 channel currents [6]: 9.2 ± 0.6%
- inhibition of hKv1.6 channel currents [7]: 79.2 ± 2.4%
- inhibition of hKv1.3-M1 channel currents ([8]; 100 nM peptide): 23.4 ± 3.4%
- inhibition of hKv1.3-M1 channel currents ([8]; 1 μM peptide): 78.8 ± 3.4%
- inhibition of hKv1.3-M2 channel currents ([9]; 100 nM peptide): 35.4 ± 6.7%
- inhibition of hKv1.3-M2 channel currents ([9]; 1 μM peptide): 72.9 ± 7.0%
- inhibition of hKv1.3-M3 channel currents ([10]; 100 nM peptide): 1.2 ± 0.21%
- inhibition of hKv1.3-M3 channel currents ([10]; 1 μM peptide): 7.4 ± 0.64%

Molecule: CC[C@H](C)[C@H](NC(=O)CNC(=O)[C@@H](N)C(C)C)C(=O)N[C@@H](CC(N)=O)C(=O)N[C@H](C(=O)N[C@@H](CCCCN)C(=O)N[C@H]1CSSC[C@@H]2NC(=O)[C@H](CCCCN)NC(=O)CNC(=O)[C@H](Cc3ccccc3)NC(=O)[C@H](CCCNC(=N)N)NC(=O)[C@H](CCSC)NC(=O)CNC(=O)[C@H](C)NC(=O)[C@H](CC(=O)O)NC(=O)[C@H](CCCCN)NC(=O)[C@@H]3CSSC[C@@H](C(=O)N[C@H](C(=O)N4CCC[C@H]4C(=O)N[C@@H](CCCCN)C(=O)O)[C@@H](C)O)NC(=O)[C@H](CC(=O)O)NC(=O)[C@H](CSSC[C@H](NC(=O)[C@H](CCC(N)=O)NC(=O)CNC(=O)[C@H](CO)NC(=O)[C@H](Cc4c[nH]cn4)NC(=O)[C@H](CCCCN)NC1=O)C(=O)N[C@@H](CC(C)C)C(=O)N[C@@H](CCCCN)C(=O)N1CCC[C@H]1C(=O)N3)NC(=O)[C@H](CCCCN)NC(=O)CNC(=O)[C@H](CC(N)=O)NC(=O)[C@H](CCSC)NC2=O)C(C)C [MeuKTX, reference compound] (H-VGINVKCKHSGQCLKPCKDAGMRFGKCMNGKCDCTPK-OH; disulfide 7-27, 13-32, 17-34 (inferred); N-terminus and C-terminus assumed)
- inhibition of hKv1.1 channel currents [5]: 90.7 ± 1.1%
- inhibition of hKv1.2 channel currents [6]: 14.6 ± 2.6%
- inhibition of hKv1.6 channel currents [7]: 77.4 ± 2.7%
- inhibition of hKv1.3-M1 channel currents ([8]; 100 nM peptide): 45.7 ± 7.9%
- inhibition of hKv1.3-M1 channel currents ([8]; 1 μM peptide): 82.8 ± 6.1%
- inhibition of hKv1.3-M2 channel currents ([9]; 100 nM peptide): 78.3 ± 4.9%
- inhibition of hKv1.3-M2 channel currents ([9]; 1 μM peptide): 95.9 ± 1.3%
- inhibition of hKv1.3-M3 channel currents ([10]; 100 nM peptide): 3.9 ± 0.21%
- inhibition of hKv1.3-M3 channel currents ([10]; 1 μM peptide): 16.1 ± 2.0%

Molecule: BmK-NSPK-I18K/I26K/K28M (peptide)
- inhibition of hKv1.3 channel currents by 1 μM peptide (whole-cell patch clamp, HEK293T) [11]: 26.5%

Molecule: MeuKTX peptide
- IC50 of inhibition of hKv1.3 channel currents (whole-cell patch clamp, HEK293T) [1]: 2.63 nM
- inhibition of hKv1.1 channel currents by 1 μM peptide (whole-cell patch clamp, HEK293T) [2]: 90.7%
- inhibition of hKv1.2 channel currents by 1 μM peptide (whole-cell patch clamp, HEK293T) [3]: 14.6%
- inhibition of hKv1.6 channel currents by 1 μM peptide (whole-cell patch clamp, HEK293T) [4]: 77.4%

Molecule: KTX-2 peptide (from UniProt P45696 23-59)
- IC50 of inhibition of hKv1.3 channel currents (whole-cell patch clamp, HEK293T) [1]: 0.32 nM
- inhibition of hKv1.3 channel currents by 1 μM peptide (whole-cell patch clamp, HEK293T) [1]: 94.9%

— PMC11819763, “Activity of Potassium Channel BmK-NSPK Inhibitor Regulated by Basic Amino Acid Residues: Novel Insight into the Diverse Peptide Pharmacology” (Molecules, 2025)
